“Also recorded” adds a separate entry of the source. Blank lines part the entries; values can stand above or below the molecule they belong to.
What was measured:
[1] = test system: human iPSC derived cells (islet-like organoids, MCS, HILOs); assay: Glucose-stimulated insulin/c-peptide secretion assay (GSIS, ELISA); format: cell-based; conditions: 3 mM vs 20 mM glucose
Experimental: Insulin release from intact islets was monitored using batch incubation methods as reported by E. Yoshihara et al., 2016, Cell metabolism, 23:622-634. Briefly, overnight-cultured, isolated pancreatic islets (RPMI-1640 medium supplemented with 10% (v/v) fetal bovine serum and 1% (v/v) Antibiotic-Antimycotic (Gibco)) were pre-cultured at 37° C. for 30 minutes in Krebs-Ringer bicarbonate buffer (KRBB) containing 129.4 mM NaCl, 3.7 mM KCl, 2.7 mM CaCl2), 1.3 mM KH2PO4, 1.3 mM MgSO4, 24.8 mM NaHCO3 (equilibrated with 5% CO2, 95% O2, pH 7.4), 10 mM HEPES and 0.2% (v/v) BSA (fraction V, Sigma) (KRBH) with 3 mM glucose). […] After 30 minutes, the islets were pelleted by centrifugation and secreted insulin levels were determined in the medium by Enzyme Linked Immunosorbent Assay (ELISA), (Rat/mouse Insulin ELISA KIT (Millipore) and Human Insulin ELISA KIT or ultrasensitive human c-peptide ELISA Kit (Millipore) for mouse and human islets, respectively). […] After 30 minutes, the cells were pelleted by centrifugation and c-peptide levels were determined in the supernatant medium using the human c-peptide ELISA KIT (Millipore). […]
Insulin release from intact islets was monitored using batch incubation methods (Yoshihara et al., 2010, Nat. Commun. 1:127). […] After 30 min, the cells were pelleted by centrifugation and c-peptide levels were determined by human c-peptide ELISA KIT (Millipore).

INS-1 cells = assay: Proinsulin-NanoLuc Gaussia luciferase insulin secretion assay in INS-1 cells; format: cell-based, rat; conditions: 20 mM glucose with Exendin-4
Experimental: It was previously published that a reporter construct, in which the Gaussia luciferase is placed within the c-peptide portion of proinsulin accurately measures insulin secretion without affecting β-cell function (Burns et al., 2015, Cell metabolism, 21, 126-137). Using a lentiviral system, INS-1 cells stably expressing this Gaussia luciferase were generated. Luciferase secretion from INS-1 cells stably expressing Proinsulin-NanoLuc increased with high-glucose (20 mM), high glucose with Exendin-4 (G20 mM+Ex4), and the depolarizing agent, potassium chloride, confirming the utility of this reporter system. Next, the usefulness of this reporter to measure insulin secretion in mouse or human islets transiently infected with the Proinsulin-NanoLuc reporter was evaluated. Luciferase secretion in response to 20 mM high glucose was detected in both transiently infected mouse and human islets were detected. Importantly, the assay sensitivity was sufficient that insulin secretion could be qualified at the level of single islets. […] (See, e.g., WO 2017/205511). […]

[2] = test system: human islet-like organoids; assay: Proinsulin-NanoLuc Gaussia luciferase insulin secretion assay in single or pooled islets/organoids; format: cell-based; conditions: pooled organoids (10 to 100 per assay)
Source text: Recent studies have reported the generation of insulin producing β-like cells from hESC and hiPSC capable of secreting insulin in response to glucose (Pagliuca et al., 2014, Cell, 159, 428-439; Rezania et al., 2014, Nature Biotechnology, 32(11):1121-33; Russ et al., 2015, FMBO Journal, 34:1759-1772). […] To date, efforts have focused on the independent generation of insulin producing β-like cells, glucagon producing α-like cells, and somatostatin producing 6-like cells from hPSC. However, these approaches lack the supporting cells important for regulation, such as mesenchymal cells, adipose cells, and vasculature cells. Since the 3D structure of islets naturally enhances their function, these missing cellular components may compromise the functionality of islet-like cells clusters. […] To test this idea, single organoid proinsulin secretion assays were performed. Human islet-like organoids generated by methods described herein are morphologically identical with human islet.
Mouse islets, human islets and human islets like organoids were plated in their respective growth media with 10 μg/ml Polybrene® polymer (Santacruz). Viruses were then added. After overnight culture, cells were placed in fresh growth media. […]

[3] = test system: PD-L1 expression in wHILOs; assay: PD-L1 induction by IFNγ in wHILOs; format: cell-based, human
Experimental: For acute treatment, wHILOs were treated with 10 ng/ml IFNγ in the differentiation medium (S5 with 10 μM Trolox, 2 μM R428, 1 mM N-acetyl cysteine, 10 μM Alk5 inhibitor II, 1 μM T3 and 100 ng/ml rhWnt4 (recombinant human Wnt4)) for 2 hours. Cells were then washed twice with PBS prior to culturing in differentiation medium (S5 with 10 μM Trolox, 2 μM R428, 1 mM N-acetyl cysteine, 10 μM Alk5 inhibitor II, 1 μM T3 and 100 ng/ml rhWnt4) (single pulse stimulation). IFNγ exposure was repeated 3 times with washing and 24 hours resting time in differentiation medium (S5 with 10 μM Trolox, 2 μM R428, 1 mM N-acetyl cysteine, 10 μM Alk5 inhibitor II, 1 μM T3 and 100 ng/ml rhWnt4) between each IFNγ exposure (MPS stimulation) to generate wHILO^ie. After the final IFNγ pulse, cells were cultured in the tissue culture incubator for a week prior to the RNA-seq analyses (FIGS. 14A-14C), ATAC-seq analyses (FIG. 14D) and transplantation into STZ-induced diabetic C57BL6J mice (FIG. 5J) or humanized mice (FIG. 15B).
Total RNA was extracted using TRIzol reagent (Invitrogen) and RNeasy KIT (Qiagen). Reverse transcription was performed with a SuperScript III First-Strand Synthesis System kit (Invitrogen) or PrimeScript RT reagent kit (TAKARA). Real time quantitative RT-PCR (qPCR) was performed using SYBR Green (Bio-Rad).

[4] = test system: PD-L1 expression in human islets; assay: PD-L1 induction by IFNγ in human islets; format: cell-based; conditions: 12 hours after IFNγ treatment (FIG. 12F)
[5] = test system: chromatin accessibility in HILO cells; assay: ATAC-Seq chromatin accessibility in HILOs; format: cell-based, human
Source text: […] D. Buenrostro et al., 2015, Current Protocols in Molecular Biology, 109:21-29. Reads were aligned by Bowtie to hg19, and peaks were called by HOMER using default settings. Differential peaks and motif analyses from 2 biological duplicates were identified using HOMER essentially as instructed (see, e.g., S. Heinz et al., 2010, J. Mol. Cell, 38:576-589). Detailed methods for HOMER are freely available, e.g., at http://http://homer.salk.edu/homer/. Briefly, the program searches against the target and background sequences for enrichment of known motifs, and returns motifs enriched with a threshold of 1.5-fold change and a p-value of less than 0.05. Promoter regions, defined as 1 kilobase (kB) upstream from the transcription start site, of genes with enhanced chromatin accessibility upon Wnt4 treatment, were interrogated for enriched motifs of 8-16 bp using HOMER motif analysis.

PD-1 = PD-1 (Homo sapiens, UniProt Q15116); conditions: read-out: Kd (dissociation constant), binding to PD-1; cited from earlier work
CD80 (B7-1) = target: T1, CD80 (B7-1) (Homo sapiens, UniProt P33681); conditions: cited from earlier work
T1 sequence (P33681 35-288): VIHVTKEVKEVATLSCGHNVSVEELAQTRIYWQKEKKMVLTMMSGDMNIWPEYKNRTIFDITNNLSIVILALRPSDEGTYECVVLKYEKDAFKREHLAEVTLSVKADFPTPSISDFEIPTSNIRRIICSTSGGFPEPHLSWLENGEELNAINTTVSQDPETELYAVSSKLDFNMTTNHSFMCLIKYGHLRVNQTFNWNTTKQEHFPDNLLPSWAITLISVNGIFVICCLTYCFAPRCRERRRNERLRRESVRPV

CD86 (B7-2) = target: T2, CD86 (B7-2) (Homo sapiens, UniProt P42081); conditions: cited from earlier work
T2 sequence (P42081 24-329): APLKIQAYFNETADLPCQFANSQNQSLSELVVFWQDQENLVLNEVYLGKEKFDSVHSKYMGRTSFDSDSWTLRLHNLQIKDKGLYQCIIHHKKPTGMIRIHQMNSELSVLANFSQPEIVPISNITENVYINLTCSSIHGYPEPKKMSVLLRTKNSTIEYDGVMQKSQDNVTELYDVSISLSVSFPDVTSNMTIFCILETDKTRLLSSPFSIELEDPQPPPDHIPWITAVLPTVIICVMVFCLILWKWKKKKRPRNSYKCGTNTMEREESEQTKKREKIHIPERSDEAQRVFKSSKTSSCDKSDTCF

[6] = test system: human islet-like organoids; assay: Amyloid polypeptide (hIAPP) toxicity in human islet-like organoids; format: cell-based; conditions: 24 hours
Source text: The generation of functional human organs according to methods described herein provides new strategies for drug-screening and disease modeling. Specifically, functional organoids can be used as models of type 2 diabetes for drug screening.

Chain of PD-1 (Q15116 25-288): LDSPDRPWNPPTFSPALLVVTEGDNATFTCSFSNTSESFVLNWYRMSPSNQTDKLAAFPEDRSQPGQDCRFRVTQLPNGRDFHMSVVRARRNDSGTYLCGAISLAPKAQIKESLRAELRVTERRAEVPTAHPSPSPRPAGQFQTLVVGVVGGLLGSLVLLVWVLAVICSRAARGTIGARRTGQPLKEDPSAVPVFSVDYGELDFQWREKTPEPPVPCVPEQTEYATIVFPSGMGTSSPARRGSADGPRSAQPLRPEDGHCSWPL

Molecule: Oc1nc(-c2ccc(C(F)(F)F)cc2)nc2c1CSCC2 [XAV939, reference compound]
glucose-stimulated insulin (c-peptide) secretion in vitro [1]: not blocked

Molecule: Exendin-4
luciferase secretion (insulin secretion reporter) (INS-1 cells): increased

GSIS by proinsulin luciferase secretion assay [2]: enhanced GSIS
Molecule: GLP-1: incretin used for co-stimulation of insulin secretion

Molecule: IFNγ: recombinant human IFNγ (R&D Systems, 285-IF) used to induce PD-L1 expression
GSIS functionality after MPS IFNγ ([1]; wHILOs): not compromised
duration of sustained PD-L1 expression after MPS ([3]; at least 3 pulses, 10 ng/ml, 2 hours per pulse): at least 7 days
PD-L1 expression after repeated short IFNγ exposures (MPS) (in words) ([3]; multiple pulse stimulation): high levels of PD-L1 protein expression; also recorded: sustained PD-L1 expression
PD-L1 induction after single IFNγ exposure (in words) ([3]; single / acute exposure): rapidly and robustly induced; also recorded: maximum PD-L1 induction; also recorded: transient
increase in PD-L1 expression [4]: approximately 20 fold
chromatin accessibility at PD-L1, IRF9, JUNB, JUND loci ([5]; after MPS IFNγ treatment): persistent increases
chromatin accessibility at IRF1, STAT1 ([5]; after acute (12 h) IFNγ treatment): not sustained

Molecule: PD-L2: related molecule that shares PD-1 as a receptor
Kd (PD-1): 140 nM
affinity for CD80 (in words) (CD80 (B7-1)): does not have affinity
affinity for CD86 (in words) (CD86 (B7-2)): does not have affinity

Molecule: hIAPP: amyloid polypeptide, an inducer of β cell loss in type 2 diabetic patients (KCNTATCATQRLANFLVHSSNNFGAILSSTNVGSNTY; Islet amyloid polypeptide; UniProt P10997 34-70, looked up)
cell cycle arrest [6]: dose-dependently induced G0/G1 arrest

Source: US12637662B2, “Cells, islets, and organoids that evade immune detection and autoimmunity, methods of production and use thereof” (SALK INSTITUTE FOR BIOLOGICAL STUDIES, priority 2018, dated 2026)
